How the values were obtained:
[1] = Rat pharmacokinetic experiment; type: in vivo; details: po, male SD rats, gavage (p.o.), 10 mg/kg, plasma
Excerpt: TEST EXAMPLE 3 PHARMACOKINETIC EXPERIMENT OF COMPOUNDS
Pharmacokinetic test of compounds T-32/T-105/T-253/T-272/T-273/T-277 of the present invention.
Experimental Protocol of Rat Pharmacokinetics
• (1) Required animals: healthy adult SD rats, male, 3 rats, 6-8 weeks old; weighing 200-300 g. • (2) Required equipments: analytical balance, animal weight scale, magnetic stirrer, refrigerated centrifuge, single-channel manual pipettor, etc. • (3) Required reagents: EDTA-Na2 anticoagulant, etc. 11.2 g of EDTA-Na2 was weighed and placed in a reagent flask, 100 mL of normal saline was added, and the flask was shook to completely dissolve it. After the preparation was completed, it was divided into 1.5 mL centrifuge tubes with 20 uL each for whole blood sample collection. • (3) About 10 mg of the sample to be tested was accurately weighed, 5% DMSO after conversion was added to dissolve, then 30% PEG400 and 65% (10% Hp-β-CD in PBS) were added for sonication, and vortex-mixed evenly to obtain a solution with a concentration of 1 mg/mL which is freshly prepared before use. • (4) 0.1 mL of sample was taken into a 1.5 mL centrifuge tube and stored at −80° C. for concentration analysis of drug administration solution. • (5) Animals were kept in rat cages, and fasted (not less than 10 h) from the day before the test(but water was allowed). The animals were separately weighed and marked at the tail on the day of the test. Blank blood was collected before administration. The blood was collected from tail vein. • (6) Route of administration: gavage (p.o.); dosage: 10 mg/kg; administration volume: 10 mL/kg. • (7) Operation process: Use the left hand with anti-bite gloves to catch the rat, make it stand upright, stretch the 16th gastric lavage needle from the throat of the mouth, insert the needle when feeling out no obvious resistance, and then inject the drug into the stomach. • (8) 0.2 ml of whole blood was collected from the tested animals and added into EDTA-Na2 anticoagulant tubes before administration and 0.5 h, 1 h, 2 h, 4 h, 6 h, 8 h, 12 h and 24 h after administration respectively. The tubes were reversed up and down for 3-4 times and mixed evenly, centrifuged at 4° C. at 10000 g for 5 min to separate plasma, and stored at −80° C. for testing. The blood was collected from tail vein. • (9) LC-MS/MS method was established to determine the concentration of original drug in plasma, the blood drug concentration-time curve was drawn, and the main pharmacokinetic parameters were calculated by non-compartment model. • (10) Pharmacokinetic parameters of T-32/T-105/T-253/T-272/T-273/T-277 were shown below in Table 2.

[2] = tested on: YAP-TEAD; experiment: YAP-TEAD inhibitor activity by Nano luciferase method (8xGTiiC-nLuc reporter in 293T cells); type: cell-based; details: Homo sapiens, HEK-293T, 48 hours incubation, read-out: Nano-luciferase detection (IC50)
Outline: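 IC50 derived from nLuc reporter signal normalised to 0 nM wells, after 48 h, 37 °C compound exposure (1:3.16 series, highest 10,000 nM). Cells: 293T transfected with 8xGTiiC-nLuc/CMV-fLuc plasmid, plated at 2000 per well.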

Row | AUC(0-t) [1] [ng·h/mL] | Cmax [1] [ng/mL] | MRT last [1] [h] | Tmax [1] [h] | IC50 [2] [nM] | SMILES
1 | 39200 | 2640 | 9.78 | 4.7 | ≤ 1000 | C[C@H](NC(=O)c1ccc2c(c1)c1cnccc1c(=O)n2-c1ccc(C(F)(F)F)cc1)c1ccccn1 [Example T-253]
2 | 26900 | 2650 | 7.28 | 4.7 | ≤ 1000 | Cc1cc(=O)n(-c2ccc(C(F)(F)F)cc2)c2ccc(C(=O)N[C@@H](C)c3ccccn3)cc12 [Example T-277]
3 | 22200 | 2220 | 6.88 | 2.5 | ≤ 1000 | CNS(=O)(=O)c1ccc2c(c1)c1cn(C)nc1c(=O)n2-c1ccc(C(F)(F)F)cc1 [Example T-32]
4 | 53900 | 3870 | 9.48 | 4 | ≤ 1000 | C[C@H](NC(=O)c1ccc2c(c1)c1nn(C)cc1c(=O)n2-c1ccc(C(F)(F)F)cc1)c1ccccn1 [Example T-105]
5 | 21200 | 1410 | 9.96 | 5.3 | ≤ 1000 | C[C@H](NC(=O)c1ccc2c(c1)c1ccccc1c(=O)n2-c1ccc(C(F)(F)F)cc1)c1ccccn1 [Example T-272]
